{"source": "paper PMC4402584", "about": "“New Diterpenes from Cultures of the Fungus Engleromyces goetzii and Their CETP Inhibitory Activity” (Natural Products and Bioprospecting, 2015)", "biological_target": "T1, cholesterol ester transfer protein (CETP) (Oryctolagus cuniculus, UniProt P22687)", "T1 sequence (P22687 2-497)": "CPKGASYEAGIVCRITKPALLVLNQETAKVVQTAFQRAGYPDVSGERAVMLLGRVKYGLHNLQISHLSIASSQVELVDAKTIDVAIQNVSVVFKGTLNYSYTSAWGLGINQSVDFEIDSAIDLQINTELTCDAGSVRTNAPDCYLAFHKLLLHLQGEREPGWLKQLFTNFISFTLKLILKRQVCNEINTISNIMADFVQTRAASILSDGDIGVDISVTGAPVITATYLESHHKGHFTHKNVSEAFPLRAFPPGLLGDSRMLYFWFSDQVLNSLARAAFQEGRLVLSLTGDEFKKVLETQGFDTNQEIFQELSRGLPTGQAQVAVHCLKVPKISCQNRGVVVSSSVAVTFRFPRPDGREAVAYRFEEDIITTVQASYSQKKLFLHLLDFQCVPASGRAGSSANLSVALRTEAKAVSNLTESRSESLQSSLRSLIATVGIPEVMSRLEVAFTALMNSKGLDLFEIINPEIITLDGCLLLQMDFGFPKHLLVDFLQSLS", "test": "fluorescent neutral lipid transfer assay (BioVision CETP Inhibitor Screening Kit) with rabbit serum as CETP source", "format": "biochemical"}
{"smiles": "C=C[C@@H]1C(=C)CC[C@H]2[C@H]1CC[C@@H]1[C@]2(C)C[C@@H](O)C[C@]1(C)C(=O)O", "note": "[compound 1, engleromycenolic acid A]", "values": [{"measurement": "IC50", "value": 7.55, "unit": "µM"}]}
